# Measured values: patent US20120251628A1, “COMPOSITIONS AND METHODS FOR TREATMENT OF CANCER” (priority 2011, published 2012)
# Experiments:
# [1] = system: CT26 (mouse colon cancer); assay: DCE-MRI of tumor vascularity (Kep) in CT26 tumor mice; assay type: in vivo
# Experimental: To determine whether the occurrence of central necrosis of tumors 24 hours after treatment was caused by the reduction of vascularity, DCE-MRI was used before the medication was administered and 24 hours after administration.
# Inoculate CT26 (mouse colon cancer) 2×10^6 cell subcutaneously into mice on the upper parts of their thighs.
# After checking the tumor size between 6 to 10 mm, acquire images through MRI.
# Image Acquisition: Use a magnetic resonance imaging device (i.e., 3 Tesla Intera human clinical scanner; Philips medical systems) and a mouse coil with an inner diameter of 4 cm to get images. Acquire images before the drug is administered and those 24 hours after that for two days.
# MR Pulse Sequence as follows: Dynamic Contrast enhanced MRI scan: FOV (mm)=50×35; RFOV (%)=71; Matrix scan=112; reconstruction=224; TR/TE (ms)=12/4.0; slice thickness=1 mm; slice number=11; dynamic scans=60.
# i. Conduct an experiment to the subjects under anesthesia by using an inhalation anesthetic mixing 1.5% isoflurane in 100% oxygen at a flow rate of 1 L/min.
# ii. Cannulate an intravenous injection line through the tail vein to inject a contrast agent.
# iii. Use Gd-DTPA (Magnevist, Schering, Germany, 281 mg/kg) as a contrast agent and get pre-contrast images before injecting the contrast agent and post-contrast images after injecting it.
# iv. After getting the images, inject KML001 (10 mg/kg) and Arsenic trioxide (7.5 mg/kg) intraperitoneally.
# v. Get images through a dynamic scan again 24 hours after injection.
# Accordingly, the groups of animals with which the DCE-MRI data was obtained are as follows: Group of animals treated with ATO: n=4, Group of animals treated with Saline: n=4 and Group of animals treated with KML001: n=6.
# As the low data in MRI was mapped from each result of the DCE-MRI to the positive control group of animals treated with ATO, the negative control group of animals treated with saline and the experimental group of animals treated with KML001, Kep values important for tumor vascularity were calculated. Kep (rate constant) is the back diffusion rate constant from interstitial space to vascular space, reflecting leakage of tumor vessels, i.e., a measurement of vascularity.
# [2] = system: acute promyelocytic leukemia (APL); settings: patients to which arsenic trioxide was administered; cited from earlier work
substance,measurement,setting,value
"arsenic trioxide [ATO, reference compound]","Kep values (back diffusion rate constant, tumor vascularity)","[1]; 24 hours after intraperitoneal injection vs pre-treatment, KML001 10 mg/kg, ATO 7.5 mg/kg",significantly reduced
same,contrast enhancement of the tumors in the MRI,[1]; 24 hours after treatment,decreased
same,patients showing therapeutic effects without acute toxicity,[2],more than 80%
